# Test results published in article PMC6233306 (Bioorganic & medicinal chemistry letters, 2018).
# Test system: FadD32 mutant strains of Mtb (E120 and F291)
# Format: cell-based, Mycobacterium tuberculosis
SMILES,activity versus the E120 and F291 mutants compared to wild-type,FadD32 mutant MIC90
Cc1cc2nccc(-c3ccccc3)c2c(C)c1-c1ccc(CN2CCOCC2)cc1 [Compound 8],markedly less activity,
CNC(=O)c1cc(-c2ccccc2Cl)c2c(C)c(-c3ccncc3)c(C)cc2n1 [Compound 21b],markedly less activity,
Cc1cc2nccc(-c3cncnc3)c2c(C)c1-c1ccc(CN2CCOCC2)cc1 [Compound 15n],markedly less activity,100 µM
Cc1cc2nccc(-c3ccnn3C)c2c(C)c1-c1ccc(CN2CCOCC2)cc1 [Compound 15m],markedly less activity,100 µM
